Values of other authors, collected in EP1156371A2, “Replenishing method of planographic printing plate developer” (FUJI PHOTO FILM CO., LTD., priority 2000, dated 2001).

Settings: dissociation constant of weak acid, aqueous solution

pKa | Molecule
12.8 | NC(=S)c1ccccc1 [thiobenzamide]
11.9 | CC(=NO)C(C)=NO [dimethyl glyoxime]
12.68 | O=Cc1ccccn1 [pyridine-2-aldehyde]
11.7 | O=C(O)c1cc(S(=O)(=O)O)ccc1O [sulfosalicylic acid]
11.27 | Oc1cccc(O)c1 [resorcinol]
11.56 | Oc1ccc(O)cc1 [hydroquinone]
12.56 | Nc1ncnc2c1ncn2[C@@H]1O[C@H](CO)[C@@H](O)[C@H]1O [adenosine]
11.35 | CC(=NO)c1ccccc1 [acetophenone oxime]
11.34 | Oc1cccc(O)c1O [pyrogallol]
12.55 | picoline thioamide
12.10 | ON=Cc1ccccc1O [2-hydroxybenzaldehyde oxime]
12.86 | c1ccc2[nH]cnc2c1 [benzimidazole]
12.05 | O=Cc1ccncc1 [pyridine-4-aldehyde]
11.82 | Oc1ccc(O)c(O)c1 [1,2,4-trihydroxybenzene]
12.84 | O=C(O)c1cc2ccccc2cc1O [3-hydroxy-2-naphthoic acid]
11.37 | NC(=N\O)/C(N)=N/O [ethanediamide dioxime]
12.5 | OC[C@H]1O[C@@H](n2cnc3c(O)ncnc32)[C@H](O)[C@@H]1O [inosine]
12.6 | Oc1ccccc1O [catechol]

Molecule | pKa
CC(C)(P(=O)(O)O)P(=O)(O)O [isopropylidene diphopshonic acid] | 12.10
O=C(O)c1ccc(O)c(O)c1 [3,4-duhydroxybenzoic acid] | 11.94
Cc1ccccc1O [o-cresol] | 10.33
Cc1cccc(O)c1 [m-cresol] | 10.09
CC(O)(P(=O)(O)O)P(=O)(O)O [1-hydroxy 1-ethylidene diphosphonate] | 11.52
OCC(F)(F)C(F)F [2,2,3,3-tetrafluoropropanol-1] | 12.74
CC(C)=NO [acetoxime] | 12.42
O=C1CC(=O)NC(=O)N1 [barbituric acid] | 12.5
CC(P(=O)(O)O)P(=O)(O)O [1,1-ethylidene diphosphonic acid] | 11.54
CCC(C)=NO [2-butanone oxime] | 12.45
